Test results as given in US20140329780A1, “INHIBITOR OF COLONISATION OF MUCOSA” (HELMHOLTZ-ZENTRUM FUER INFEKTIONSFORSCHUNG GMBH, priority 2011, published 2014).
“Also recorded” adds a separate entry of the source. Read-outs that look alike come from different tables or passages of the source.

Assays:
host cells = assay: Effects on host cells; type: cell-based
S. aureus = assay: Influence of ATA on S. aureus already adhering to A549 cells; type: cell-based, Staphylococcus aureus
Method: Black bars represent 0.95 μg/ml ATA and white bars represent 2.2 μg/ml. A549 cells were incubated with S. aureus for 1 hour in advance and then ATA was added. Shown are the results for adherence after incubation with ATA for the time period indicated in the graph.
All media that were used were prewarmed to 37° C. The cell line A-549 was utilized. A-549 cells from a stock that was stored at −196° C. were quickly thawed and suspended in 10 ml of cell culture medium (DMEM (Lonza, Basel, Schweiz) containing 10% FBS (Invitrogen, Carlsbad, USA)). They were cultivated at 37° C. with 10% CO2 in cell culture bottles with a surface of 25 cm^2 under moisture saturation. […] After an incubation for 5 min at 37° C. and a visible detachment of the cell layer, 10 ml of fresh cell culture medium were added, the cells were resuspended and counted in a Neubauer cell counting chamber. […]
For fixing the cells a solution of 4% paraformaldehyde in PBS was added and incubated for 20 min at room temperature. […] Chemiluminescence was determined immediately after addition of the substrate with a chemiluminescence microtiter plate reader.
Next, the influence of ATA at two different concentrations corresponding to the IC50 and IC90 values determined in Example 2, on adhering S. aureus cells has been determined. […] The adhesion has been calculated on the basis of 100% adhesion in the absence of ATA.

S. aureus N315 [1] = assay: Adhesion test: inhibition of adherence of S. aureus N315 on A549 cells; type: cell-based, Staphylococcus aureus; conditions: for Reduction of adhesion [%]: S. aureus on A549 cells
Method: S. aureus (N315) was precultivated on blood agar plates at 37° C. overnight. A colony was picked from the plate with a sterile loop and transferred into 5 ml of BHI medium. The suspension was incubated aerobically at 37° C. for 18 h. After this time the bacterial suspension was centrifugated and the clear medium was decanted off. The pellet was resuspended in PBS and centrifugated again twice. Finally the pellet was resuspended in infection medium at an OD of 1.0 at 600 nm.
Infection medium: Gibco RPMI 1640medium, pH 7.4 (Invitrogen, Carlsbad, USA), containing 1% FBS and 20 mM Hepes.
All media that were used were prewarmed to 37° C. The cell line A-549 was utilized. A-549 cells from a stock that was stored at −196° C. were quickly thawed and suspended in 10 ml of cell culture medium (DMEM (Lonza, Basel, Schweiz) containing 10% FBS (Invitrogen, Carlsbad, USA)). They were cultivated at 37° C. with 10% CO2 in cell culture bottles with a surface of 25 cm^2 under moisture saturation. The next day, the medium was removed and fresh medium was added. The cells were harvested at a confluency state of 80-90% by scrapping them off the bottom of the bottles and pipetting the suspension up and down several times. An aliquot was transferred into a fresh cell culture bottle with fresh medium. After another round of growth to 80-90% confluency the medium was removed and the cell layer was washed with 10 ml of sterile EBSS (Invitrogen). After removing the liquid, 1 ml of a 1% solution of trypsin was evenly distributed over the cell layer. After an incubation for 5 min at 37° C. and a visible detachment of the cell layer, 10 ml of fresh cell culture medium were added, the cells were resuspended and counted in a Neubauer cell counting chamber. A cell density of 100,000 /ml was adjusted and 100 μl of the cell suspension was distributed into the wells of a 96-well microtiter plate. The plate was incubated at 37° C. with 10% CO2 and moisture saturation until the cells had formed an adherent monolayer with 95-100% confluency (4-5 days). The medium was removed by pipetting and 75 μl of fresh infection medium were added to each well, followed by 25 μl of a bacterial suspension (OD600 1.0), together with different concentrations of the test compound. After an incubation time of 60 min at room temperature the medium and non-adherent bacteria were removed with a pipette and the wells were washed three times with PBS.
For fixing the cells a solution of 4% paraformaldehyde in PBS was added and incubated for 20 min at room temperature. After removing the solution and washing the cells with PBS twice, a primary antibody against S. aureus lipoteichoic acid (from rabbit, Acris Antibodies GmbH, Herford) at 1:5000 dilution in 1% BSA-PBS was added (50 μl/Well) and incubated for 45 min at room temperature. During the last 10 min of this incubation an additional 50 μl/well of a solution of DAPI ((4′,6 Diamidino-2-phenylindol)dihydrochloride) in PBS (final concentration 1 μg/ml) was added. After a washing step an incubation with the HRP-conjugated secondary antibody (goat anti rabbit, Dianova) in 1% BSA-PBS for 45 min at room temperature was carried out. For detection of chemiluminescence the BM chemiluminescence ELISA substrate (POD—peroxidase-based secondary detection systems, Roche) was used. Chemiluminescence was determined immediately after addition of the substrate with a chemiluminescence microtiter plate reader.
The detection and quantification of the adherent bacteria can also be carried out with a fluorescence-coupled secondary antibody, for which Alexa Fluor 488 goat anti rabbit at 1:1000 dilution was used. The determination of fluorescence was done after washing with PBS and adding 100 μl PBS per well with a fluorescence microtiter plate reader at 485/530 nm.
Another and very favourable way to quantify the adherent bacteria is the utilization of an automatic microscope.
The procedure is described for the ImageXpress Micro (IXM, Molecular Devices) […]

MRSA strain N315 = assay: Anti-bacterial activity / growth curves of MRSA strain N315; type: cell-based, Staphylococcus aureus
From the text: That is, it has been recognized that ATA is able to inhibit adherence of bacteria, like S. aureus, including MRSA strains while not showing an anti-bacterial activity.

S. aureus N315 [2] = assay: Inhibition of adherence of S. aureus N315 on human primary nasal epithelial cells; type: cell-based, Staphylococcus aureus; conditions: 1 μg/ml ATA
Method: The experiments with the human nasal primary cells (HNEPC, Provitro GmbH, Berlin) were used as described for the A-549 cells and used for up to four passages (corresponding to approx. four weeks). For the HNEPC, Airway epithelial cell growth medium (Provitro GmbH, Berlin) was used.
Following the general procedure as described above, the properties of ATA on inhibiting adhesion of S. aureus N315 on human primary epithelial cells was investigated. ATA was added at different concentrations to the culture and adherence was determined as described before. Already a concentration of 1 μg/ml ATA is sufficient to reduce the adherence of S. aureus to about 45%.

[3] = tested on: different S. aureus isolates (50128509, BH30(04), 50307270, BH30(04) spa, 50046981); assay: Inhibition of adherence of different S. aureus isolates; type: cell-based, Staphylococcus aureus; conditions: MRSA, rifampicin-resistant, tetracycline resistant and methicillin sensitive isolates
From the text: The inhibitory properties of ATA on different S. aureus isolates have been determined using the following strains: 50128509 (MRSA; source: HZI Braunschweig), BH30(04) (MRSA; biofilm positive; SCCmec type II; MLST type 8; CC8; kindly provided by Prof. Jim O'Gara), 50307270 (rifampicin-resistant; source HZI Braunschweig), BH30(04) spa (tetracycline resistant; kindly provided by Prof. Jim O'Gara), 50046981 (methicllin sensitive; source: HZI Braunschweig).
Adherence has been determined as described above.

[4] = Staphylococcus aureus, N315, A549
[5] = adhesion of S. aureus N315 on A549 cells

Compound | effects on host cells (host cells) | percentage of adherence of S. aureus compared to the control with no ATA (S. aureus; 2.2 μg/ml ATA added after 1 hour pre-incubation of A549 cells with S. aureus, after 3 hours) | eradication of S. aureus after adherence to cells (S. aureus; ATA at IC50 and IC90 concentrations added after 1 hour adherence to A549 cells) | Reduction of adhesion [%] (S. aureus N315 [1]; 100 μM) | IC50 (S. aureus N315 [1]; [4]) | IC90 (S. aureus N315 [1]; [4]) | IC10 (S. aureus N315 [1]; [5]) | Reduction of adhesion [%] (S. aureus N315 [1]; ≦50 μM) | anti-bacterial effect (growth curves of MRSA strain N315) (MRSA strain N315; 40 ug/ml, FIG. 6) | influence on growth of the MRSA strain (MRSA strain N315; 48 μg/ml, FIG. 6) | anti-bacterial activity (MRSA strain N315; concentration up to 100 μg/ml) | adherence of S. aureus (S. aureus N315 [2]) | inhibitory activity on adherence of different S. aureus strains [3] | IC50 (S. aureus N315 [1]; adhesion of S. aureus N315 on A549 cells, read-out: IC50) | IC90 (S. aureus N315 [1]; adhesion of S. aureus N315 on A549 cells, read-out: IC90)
O=C(O)C1=CC(=C(c2ccc(O)c(C(=O)O)c2)c2ccc(O)c(C(=O)O)c2)C=CC1=O [ATA, aurintricarboxylic acid] | no remarkable effects have been observed on host cells | below 40% | potent in eradicating S. aureus after adherence to cells | >90% | 0.95 µg/mL | ~2.2 µg/mL | ~0.45 µg/mL | >90% | does not have an anti-bacterial effect | does not significantly influence growth | no anti-bacterial activity is present; also recorded: does not show anti-bacterial activity | about 45% | effective on different types of S. aureus strains |  | 
Cc1cc(=O)c2c(O)c3c(O)cc(O)c4c5c(O)cc(O)c6c(O)c7c(=O)cc(CO)c8c1c2c(c34)c(c65)c78 [pseudohypericine] |  |  |  | >90% |  |  | 20 µM | 50% |  |  |  |  |  | 51 µM | 80 µM
